Reference: patent US11596615B2, “Compositions and methods for treatment of insulin resistance” (Temple University—Of The Commonwealth System Of Higher …, priority 2016, dated 2023)
Where a name gives a salt, the structure may show the parent alone.

Legend:
3T3-L1 adipocytes [1] = test: Effect of 4-HNE and H2O2 on insulin-induced glucose uptake by 3T3-L1 adipocytes; type: cell-based, mouse; conditions: 500 μM for 4 hour, then 100 nM insulin 60 minutes; FIG. 2
Method: 3T3-L1 adipocytes (1×10^6) were treated with either 500 μM of 4-HNE or H2O2 or combination of both for 4 hour and were then stimulated with 100 nM insulin for 60 minutes. The glucose uptake was measured by a specific MRM method.

GLUT4 = GLUT4 carbonylation (K264-HNE adduct) in 3T3-L1 cells overexpressing GLUT4, MRM; type: cell-based; conditions: 20 μM for 4 hour, FIG. 1A-1B
Method: A GLUT4-SNAP fusion construct was generated. 3T3-L1 adipocytes were then retrovirally transduced with the construct to overexpress the GLUT4-SNAP protein. Twenty-four hours after the transduction, the cells were treated with and without 20 μM of 4-HNE for an additional 4 hours. This 4-HNE dose was chosen because it was similar to the physiological levels and was non-toxic. In order to identify and quantitate GLUT4 carbonylation (K264 NHE-adduct or R265 and R246 glutamic semialdehyde adducts), a mass spectroscopy-based multiple reaction monitoring (MRM) method was developed and validated.

3T3-L1 adipocytes [2] = test: Restoring glucose uptake in insulin-stimulated 3T3-L1 cells exposed to 4-HNE and H2O2 (FIG. 13); type: cell-based, mouse; conditions: 10 μM pretreatment 12 hours, then 4HNE and H2O2 4 hours; for glucose uptake impairment induced by 4-HNE and H2O2: FIG. 13
Method: Insulin-stimulated 3T3-L1 adipocytes were pretreated with the drug (S)-2-amino-6-((3-aminopropyl)amino)hexanoic acid dihydrochloride (10 μM) for 12 hours followed by exposure to 4HNE and H2O2 for an additional 4 hours. The amounts of glucose taken up by the 3T3-L1 adipocytes were measured by the MRM methods described above. The results in FIG. 13 show the effect of the drug in restoring glucose uptake in insulin-stimulated 3T3-L1 cells exposed to 4-HNE and H2O2: Control cells, no insulin (C− No Ins); control cells, with insulin (C+ Ins); 4HNE+H2O2-treated cells (4HNE/H2O2) and cells treated with drug+4HNE+H2O2 (“APL”).
Insulin-stimulated 3T3-L1 adipocytes were pretreated with the drug (S)-2-amino-5-((6-aminohexyl)amino)pentanoic acid dihydrochloride (10 μM) for 12 hours followed by exposure to 4HNE and H2O2 for an additional 4 hours. The amounts of glucose taken up by the 3T3-L1 adipocytes were measured by the MRM methods described above. FIG. 13 includes the results: cells treated with (S)-2-amino-5-((6-aminohexyl)amino)pentanoic acid trihydrochloride (MC-180351).
Insulin-stimulated 3T3-L1 adipocytes were pretreated with the drug (S)-2-amino-5-(([…])amino)pentanoic acid dihydrochloride (10 μM) for 12 hours followed by exposure to 4HNE and H2O2 for an additional 4 hours. The amounts of glucose taken up by the 3T3-L1 adipocytes were measured by the MRM methods described above. FIG. 13 includes the results: cells treated with (S)-2-amino-5-((5-aminopentyl)amino)pentanoic acid trihydrochloride (MC-180352).

## CCCCCC(O)/C=C/C=O (stereo not shown) [Example 4-HNE, 4-hydroxynonenal]
3T3-L1 adipocytes [1]
  reduction of glucose uptake: 32%
GLUT4
  formation of K264-HNE GLUT4 adduct: induced the formation of the K264-HNE adduct

## OO [Example H2O2, H2O2]
3T3-L1 adipocytes [1]
  reduction of glucose uptake: 66%

## NCCCCCCNCCC[C@H](N)C(=O)O [MC-180351, (S)-2-amino-5-((6-aminohexyl)amino)pentanoic acid trihydrochloride]
3T3-L1 adipocytes [2]
  GLUT4 carbonylations: reduce GLUT4 carbonylations
  glucose uptake impairment induced by 4-HNE and H2O2: prevent glucose uptake impairment induced by 4-HNE and H2O2

## NCCCCCNCCC[C@H](N)C(=O)O [MC-180352, (S)-2-amino-5-((5-aminopentyl)amino)pentanoic acid trihydrochloride]
3T3-L1 adipocytes [2]
  GLUT4 carbonylations: reduce GLUT4 carbonylations
  glucose uptake impairment induced by 4-HNE and H2O2: prevent glucose uptake impairment induced by 4-HNE and H2O2
